Patent publication US20090175838A1, “METHODS OF MODULATING IMMUNE FUNCTION” (priority 2007, published 2009)
No end group written: not given here. *: point of attachment. Biotin = O=C1N[C@H]2[C@H](CS[C@H]2CCCCC(=O)*)N1

What was measured:
[1] = test system: human B-cell lines, Raji and Daudi; assay: Binding of biotinylated synthetic peptide to B-cell lines (Streptavidin-PE flow cytometry); type: cell-based; conditions: 50 μM
Description: (§1) The ability of synthetic peptides to compete with binding of CLIP peptides and result in the cell surface expression of CD1d was determined.
(§2) Results: The results shown in FIG. 5 are expressed in histogram analyses. The Y axis represents cell number of the 5000 live cells versus the X axis which is a reflection of relative Fitc fluorescence versus Streptavidin-PE (eBioscience, Cat. #12-4317) that will bind with high affinity to cell-bound biotinylated peptides. The distance between the histogram from the isotype control staining versus the histogram reflecting the specific stain and is a measure of level of cell surface CD1d.
(§3) Cell Culture Conditions: The Raji and Daudi cell lines were purchased from American Type Culture Collection, were thawed, and grown in RPMI 1640 medium supplemented with standard supplements, including 10% fetal calf serum, gentamycin, penicillin, streptomycin, sodium pyruvate, HEPES buffer, 1-glutamine, and 2-ME.
Protocol: Cells were plated into a 12 well plate with 3 mls total volume containing approximately 1.5×10^6/well for Daudi cells and 3.0×10^6/well for Raji cells. Treatment groups included no treatment as control and biotinylated […] (SEQ ID NO. 1) (also referred to as MKN 5) at 50 μM final concentration based on the reported molarity of the synthesized compounds. […]

[2] = test system: cell surface CD1d on Raji and Daudi cells; assay: Cell surface expression of CD1d after competing peptide (flow cytometry, anti-CD1d); type: cell-based, human; conditions: 50 μM, both cell lines
Description: as §1, §2, §3
Protocol: Cells were plated into a 12 well plate with 3 mls total volume containing approximately 1.5×10^6/well for Daudi cells and 3.0×10^6/well for Raji cells. Treatment groups included no treatment as control and biotinylated […] […]
Harvested cells were stained using standard staining procedure that called for a 1:100 dilution of PE anti-CD1d. […] Samples were acquired and analyzed on a Coulter Excel Flow Cytometer.

[3] = test system: cell surface CLIP on Raji or Daudi cells; assay: MKN1 (bioCLIP) effect on cell surface CLIP level (flow cytometry); type: cell-based, human; conditions: 24 and 48 hours
Description: (§4) The ability of MKN1 (bioCLIP) to alter cell surface CLIP and CD74 levels was determined using Raji or Daudi cells.
(§5) Data were analyzed by histogram with Y axis represents cell number of the 5000 live cells versus the X axis which is a reflection of relative FITC fluorescence with either antibodies to CLIP or CD74. The distance between the histogram from the isotype control staining versus the histogram reflecting the specific stain and is a measure of level of cell surface CLIP or CD74 when staining a population of live Raji or Daudi cells.
as §3
(§6) Protocol: Cells were plated into a 12-well plate with 3 mls total volume containing approximately 0.5×10^6/mL for Daudi cells and 0.5×10^6/mL for Raji cells. […]
(§7) Harvested cells were stained using standard staining procedure that called for a 1:100 dilution of Fitc-anti-human CLIP or CD74 antibody (FITC, Pharmingen, Cat # 554647) or isotype control. […] Samples were acquired and analyzed on a Coulter Excel Flow Cytometer.

[4] = test system: cell surface CD74 on Raji or Daudi cells; assay: MKN1 (bioCLIP) effect on cell surface CD74 level (flow cytometry); type: cell-based, human; conditions: 24 and 48 hours
Description: as §4, §5, §3, §6, §7

Sequence of cell surface CLIP on Raji or Daudi cells (P04233 97-120): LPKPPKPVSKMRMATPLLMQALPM

Substance | binding of biotinylated peptide to B-cell lines ([1]; 4 hours) | binding of biotinylated peptide to B-cell lines ([1]; 24 hours) | cell surface expression of CD1d ([2]; 4 hours) | cell surface expression of CD1d ([2]; 24 hours) | cell surface CLIP level [3] | cell surface CD74 level [4]
FRIMAVLAS (also: biotin) | bound with high affinity | Less binding | marginally | slightly more | – | –
SGG GSK MRM ATP LLM QAL Y (Biotin-SGGGSKMRMATPLLMQALY) [MKN1 (bioCLIP)] | – | – | – | – | alters cell surface CLIP and CD74 levels | alters cell surface CLIP and CD74 levels
